Results published in patent US12692274B2, “Tetrahydroisoquinoline derivatives for the treatment of red blood disorders and inflammatory diseases” (Sanofi, priority 2020, dated 2026).
Values joined by “and” are separate entries in the source; they are usually repeats but may differ in a detail not shown here. Identical values can stand only once.

Columns and labels:
[1] = tested on: NQO1 activation in BEAS-2B cells; experiment: BEAS-2B cellular MTT assay of NQO1 activation, 0% HSA; format: cell-based
Procedure: (§1) The growth rate of the BEAS-2B cells changed based on the lot of BEGM SingleQuots in the BEGM media. The cell growth rate was determined for each lot of SingleQuots. Ideally, cells were thawed into media with the new lot of SingleQuots and grown for two passages before testing; however, growing an active culture in the new lot of media for two to three passages before testing was also acceptable. Until the cell growth rate was determined, cells were seeded at different densities (cells/cm^2) in multiple tissue culture flasks in order to avoid the cells becoming more than 70% confluent. Cells should not go above 70% confluent as the cells differentiate when they become confluent. After the cells were grown in the new lot of media as described above, the number of cells per well needed to seed in the collagen plates was determined by seeding different numbers of cells per well and incubating for 48 hours. Cell confluency was checked after 48 hours and a cell number that results in just below to just above confluency was chosen for future plate seeding. Cell confluency in the assay plate was 95-100% confluent after 48 hours.
(§2) Cell media consists of BEBM basal media with the BEGM SingleQuots added. SingleQuots vials were thawed in the tissue culture hood, and GA-1000 (Gentamicin-Amphotericin) was not added.
(§3) If complete media was to be used immediately, BEBM basal media was warmed to room temperature in the hood, but not as high as 37° C. When the media was made for future use, SingleQuots were added to cold BEBM. One at a time, the SingleQuots components (except GA-1000) were added to the BEBM media. After removal of each component from the vial, the vial was rinsed with 0.5-1 mL of BEBM (depending on the volume the vial could hold) and added to the bottle of BEBM. Once all components were added, the label that comes with the SingleQuots kit was put on the bottle of media and the date was recorded. The bottle of media was mixed by gentle shaking. The media was not filtered. This media was stored at 4° C., with any leftover media disposed of one month after the date the SingleQuots were added.
(§4) BEAS-2B Cell Splitting Protocol:
(§5) First, Trypsin was warmed to 37° C. in the water bath. The media was then warmed to room temperature by letting it sit in the tissue culture hood, but not as high as 37° C. The media was aspirated from flask(s) and the flask(s) were washed with PBS. From 1 to 1.5 mL of warm trypsin were added to each flask and incubated at 37° C. until cells came off the flask on their own (~8-10 minutes), with no vigorous tapping on the flask to detach the cells.
(§6) Media was added to each flask to a total volume of 8-10 mL per flask and transferred to 15 mL conical tube(s). The cells were spun down at 120 g for 5 minutes, level 5 brake. The cells can be spun down between 100 and 150 g. Next the media was aspirated and the cell pellet was resuspended in fresh media by pipetting up and down and flicking the tube side to side. Any clumps of cells that remained were allowed to settle to the bottom of the tube before the top suspension was transferred into another tube, leaving about 1 mL of media in the original tube. The 1 mL of media and cell clumps were mixed with a single channel p1000 pipette, and any remaining clumps were removed before adding the cells in suspension to the other tube. The suspension was mixed with a pipette, an aliquot was removed, and the cells were counted. The amount of cells/cm^2 desired was calculated and the required volume of cells was added to tissue culture flasks. For example, use of SingleQuots with ~6000 cells/cm^2 was appropriate for a three day incubation and ~3000 cells/cm^2 for a five day incubation. Optimal cell density differed depending on lot of SingleQuots. The flasks were incubated at 37° C. in 5% CO2.
(§7) Day One: Seeding BEAS-2B Cells in Collagen Plates:
(§8) Plate(s) were either seeded with 0.3% or 0% HSA. While the protocol was similar for both conditions any differences are noted herein below. […]

[2] = target: HIS-Keap1 full length / Biotin-Nrf2 (16-mer) (Homo sapiens, UniProt Q14145); experiment: biochemical
[3] = tested on: NQO1 activation in BEAS-2B cells; experiment: BEAS-2B cellular MTT assay of NQO1 activation, 0.3% HSA; format: cell-based; settings: BEAS+ W, read-out: BEAS+ W EC50
Procedure: as §1, §2, §3, §4, §5, §6, §7, §8

[4] = Homo sapiens, serum free, read-out: BEAS EC50 (nM) serum free
[5] = serum free, read-out: BEAS EC50 (nM) serum free
[6] = Homo sapiens, Serum Free W, read-out: BEAS EC50 (nM) Serum Free W
[7] = Serum Free W, read-out: BEAS EC50 (nM) Serum Free W

HIS-Keap1 full length / Biotin-Nrf2 (16-mer), sequence (Q14145 whole entry): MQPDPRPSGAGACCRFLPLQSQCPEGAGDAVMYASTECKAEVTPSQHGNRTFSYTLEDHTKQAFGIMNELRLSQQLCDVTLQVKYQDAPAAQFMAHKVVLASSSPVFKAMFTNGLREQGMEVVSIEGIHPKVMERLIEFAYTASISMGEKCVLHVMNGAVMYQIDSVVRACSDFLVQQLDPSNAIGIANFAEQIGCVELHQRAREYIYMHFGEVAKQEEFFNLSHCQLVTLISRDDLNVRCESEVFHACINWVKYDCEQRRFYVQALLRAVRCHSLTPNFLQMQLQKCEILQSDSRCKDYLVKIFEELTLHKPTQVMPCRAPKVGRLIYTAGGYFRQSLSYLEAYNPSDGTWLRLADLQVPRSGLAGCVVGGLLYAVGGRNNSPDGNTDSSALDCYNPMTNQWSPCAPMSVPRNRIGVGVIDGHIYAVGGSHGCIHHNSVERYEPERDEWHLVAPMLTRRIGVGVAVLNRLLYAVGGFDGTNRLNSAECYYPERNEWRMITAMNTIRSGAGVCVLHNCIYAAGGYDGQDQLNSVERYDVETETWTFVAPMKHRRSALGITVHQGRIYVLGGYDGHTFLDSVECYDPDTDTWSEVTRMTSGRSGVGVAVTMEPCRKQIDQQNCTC

Row | SMILES | EC50 [1, 4] [nM] | IC50 [2] | also measured
1 | Cc1c2ccc3c1ncn3CCCCCCc1ccc(cc1)C(=O)N1CCc3ccc(cc3C1)[C@H]2CC(=O)O (single isomer, unassigned) [Compound 385] | 2250 | 238 nM and 244 nM | EC50 [1, 5]: 2850 nM
2 | C[C@H](C(=O)O)[C@H]1c2ccc(nc2)OCCCCCc2ccc(cc2)C(=O)N2CCc3ccc1cc3C2 [Compound 60] | – | 580 nM and 614 nM | EC50 [1, 6]: 333 nM; EC50 [1, 7]: 258 nM and 226 nM
3 | Cc1cc2ncc1[C@@H]([C@@H](C)C(=O)O)c1ccc3c(c1)CN(CC3)C(=O)c1ccc(cc1)C/C=C/CCO2 [Compound 61] | – | 720 nM and 651 nM | EC50 [1, 6]: 422 nM; EC50 [1, 7]: 245 nM
4 | Cc1c2n(C)c3ccc(cc13)CCCCCCn1nnc3c(C)c(cnc31)[C@H](CC(=O)O)c1ccc3c(c1)CN(CC3)C2=O [Compound 68] | – | 0.3 nM | EC50 [1, 6]: 0.4 nM; EC50 [1, 7]: 0.3 nM
5 | Cc1cc2cnc1OCC/C=C/Cc1ccc(cc1)C(=O)N1CCc3ccc(cc3C1)[C@@H]2[C@H](C)C(=O)O [Compound 74] | – | 24.4 nM and 36.4 nM | EC50 [1, 6]: 4.7 nM; EC50 [1, 7]: 7.1 nM
6 | Cc1cc2cnc1OCCCCCc1ccc(cc1)C(=O)N1CCc3ccc(cc3C1)[C@H]2[C@@H](C)C(=O)O [Compound 76] | – | > 9900 nM | EC50 ([3]; Homo sapiens): > 10000 nM
7 | COc1cc2ccc1C(=O)N1CCc3ccc(cc3C1)[C@@H](CC(=O)O)c1cnc3c(nnn3CCCCCC2)c1C [Compound 91] | – | 1.9 nM | EC50 [3]: 155 nM; EC50 ([3]; Homo sapiens): 131 nM
8 | COc1cc2ccc1C(=O)N1CCc3ccc(cc3C1)C(CC(=O)O)c1cnc3c(nnn3CCCCCC2)c1C (stereo not shown) [Compound 103] | – | 1.2 nM | EC50 [1, 6]: 22.1 nM; EC50 [1, 7]: 36.8 nM
9 | Cc1c2ccc3c1nnn3CCCCCc1ccc(cc1)C(=O)N1CCc3ccc(cc3C1)[C@H]2[C@@H](C)C(=O)O [Compound 130] | – | 0.6 nM and 0.4 nM | EC50 [3]: 0.5 nM and 0.7 nM; EC50 ([3]; Homo sapiens): < 0.5 nM
10 | Cc1c2cnc3c1nnn3CCCCCCc1ccc(cc1)C(=O)N1CCc3ccc(cc3C1)[C@@H]2CC(=O)O [Compound 138] | 0.5 | 0.1 nM | EC50 [1, 5]: 0.3 nM
11 | Cc1c2ccc3c1nnn3CCCCCCc1ccc(c(F)c1)C(=O)N1CCc3ccc(cc3C1)[C@@H]2[C@H](C)C(=O)O [Compound 142] | – | 11.3 nM and 11.6 nM | EC50 [1, 6]: 34.5 nM; EC50 [1, 7]: 36.1 nM
12 | Cc1c2cnc3c1nnn3CCCCCCc1ccc(c(F)c1)C(=O)N1CCc3ccc(cc3C1)C2CC(=O)O (stereo not shown) [Compound 146] | 0.2 | 0.1 nM | –
13 | COc1cc2ccc1CCCCCn1nnc3c(C)c(ccc31)C(CC(=O)O)c1ccc3c(c1)CN(CC3)C2=O (stereo not shown) [Compound 190] | – | 4.2 nM and 4.4 nM and 1.1 nM (2×) | EC50 [1, 5]: 1 nM
14 | O=C(O)CC1c2ccc(nc2)OCCCCCc2ccc(nc2)C(=O)N2CCc3ccc1cc3C2 (stereo not shown) [Compound 193] | 1140 | 29.1 nM and 31.5 nM | EC50 [1, 5]: 768 nM
15 | Cn1c2cc3cc(cnc31)CCCCCCn1nnc3c(Cl)c(ccc31)C(CC(=O)O)c1ccc3c(c1)CN(CC3)C2=O (stereo not shown) [Compound 199] | 12.7 | 3.7 nM and 3.6 nM | EC50 [1, 5]: 11.9 nM
16 | Cc1c2ccc3c1nnn3CCCCCc1cnc(nc1)C(=O)N1CCc3ccc(cc3C1)C2CC(=O)O (stereo not shown) [Compound 204] | 2880 | 3 nM and 2.7 nM | EC50 [1, 5]: 3290 nM
17 | O=C(O)CC1c2cnc(nc2)OCCCCCc2ccc(c(Cl)c2)C(=O)N2CCc3ccc1cc3C2 (stereo not shown) [Compound 229] | 1430 | 10.4 nM | EC50 [1, 5]: 2230 nM
18 | O=C(O)CC1c2ccc3c(c2)CN(CC3)C(=O)c2ccc(cc2F)OCCCCCCn2nnc3c(Cl)c1ccc32 (stereo not shown) [Compound 250] | 16.4 | 2 nM and 1.9 nM | EC50 [1, 5]: 16.5 nM

Row | SMILES | EC50 [1, 4] [nM] | IC50 [2] | also measured
19 | O=C(O)CC1c2ccc3c(c2)CN(CC3)C(=O)c2ccc(cc2C(F)(F)F)OCCCCCCn2nnc3cc1ccc32 (stereo not shown) [Compound 308] | 910 | < 0.1 nM | –
20 | Cc1c2ccc(c1C)C(=O)N1CCc3ccc(cc3C1)C(CC(=O)O)c1ccc3c(nnn3CCCCCCO2)c1C (stereo not shown) [Compound 309] | 3.2 | < 0.1 nM | –
21 | Cc1c2ccc3c1nnn3CCCCCC(F)(F)Oc1ccc(cc1)C(=O)N1CCc3ccc(cc3C1)C2CC(=O)O (stereo not shown) [Compound 311] | 10.4 | 0.1 nM and < 0.1 nM | –
22 | Cc1c2ccc(c1C)C(=O)N1CCc3ccc(cc3C1)C(CC(=O)O)c1ccc3c(c1)nnn3CCCCCCO2 (stereo not shown) [Compound 312] | 40.7 | < 0.1 nM | –
23 | Cc1c2ccc3c1nnn3CCCCCCCc1ccc(cc1)C(=O)N1CCc3ccc(cc3C1)C2CC(=O)O (stereo not shown) [Compound 313] | 8.8 | < 0.1 nM and 0.4 nM | –
24 | O=C(O)CC1c2ccc3c(c2)CN(CC3)C(=O)c2ccc(cn2)OCCCCCCn2nnc3cc1ccc32 (stereo not shown) [Compound 328] | 6710 | 0.9 nM and < 0.1 nM | –
25 | Cc1c2ccc3c1nnn3C/C=C/CCCc1ccc(c(F)c1)C(=O)N1CCc3ccc(cc3C1)C2C(C)C(=O)O (stereo not shown) [Compound 375] | – | 1.4 nM | EC50 [1, 6]: 2.9 nM
26 | Cc1c2cccc1C(=O)N1CCc3ccc(cc3C1)C(CC(=O)O)c1ccc3c(c1)nnn3C/C=C/CO2 (stereo not shown) [Compound 429] | – | 112 nM and 82.3 nM | –
27 | Cc1ccc2cc1OCCCCCn1nnc3cc(ccc31)C(CC(=O)O)c1ccc3c(c1)CN(CC3)C2=O (stereo not shown) [Compound 430] | – | 67.5 nM and 56.1 nM | –
28 | Cc1ccc2cc1C(=O)N1CCc3ccc(cc3C1)C(CC(=O)O)c1ccc3c(c1)nnn3CCCCO2 (stereo not shown) [Compound 431] | – | 102 nM and 96.9 nM | –
29 | Cc1ccc2cc1C(=O)N1CCc3ccc(cc3C1)C(CC(=O)O)c1ccc3c(c1)nnn3C/C=C/CO2 (stereo not shown) [Compound 432] | – | 93.1 nM and 93.3 nM | –
30 | O=C(O)C[C@@H]1c2ccc3c(c2)CN(CC3)C(=O)c2cccc(c2)OCCCCCn2nnc3cc1ccc32 [Compound 433] | – | 287 nM and 204 nM | –
31 | O=C(O)C[C@H]1c2ccc3c(c2)CN(CC3)C(=O)c2cccc(c2)OCCCCCn2nnc3cc1ccc32 [Compound 434] | – | 17.8 nM and 55.4 nM | –
32 | O=C(O)CC1c2ccc3c(c2)CN(CC3)C(=O)c2cccc(c2)OCCCCn2nnc3ccc1cc32 (stereo not shown) [Compound 435] | – | > 30000 nM | –
33 | O=C(O)CC1c2ccc3c(c2)CN(CC3)C(=O)c2cccc(c2)OC/C=C/CCn2nnc3ccc1cc32 (stereo not shown) [Compound 436] | – | 2670 nM and 3410 nM | –
34 | O=C(O)CC1c2ccc3c(c2)CN(CC3)C(=O)c2cccc(c2)OC/C=C/CCn2nc3ccc1cc3n2 (stereo not shown) [Compound 437] | – | 219 nM and 234 nM | –
35 | O=C(O)CC1c2ccc3c(c2)CN(CC3)C(=O)c2cccc(c2)OC/C=C/CCn2nnc3cc1ccc32 (stereo not shown) [Compound 439] | – | 52.7 nM and 121 nM and 119 nM and 122 nM and 106 nM | –
36 | O=C(O)CC1c2ccc3c(c2)CN(CC3)C(=O)c2cccc(c2)OCCCCCn2nnc3cc1ccc32 (stereo not shown) [Compound 440] | – | 64.9 nM and 70.3 nM and 114 nM and 113 nM | –
